Values quoted from earlier work, collected in patent US20190358249A1, “Injectable Combination Products Of Fosaprepitant And 5-HT3 Blocker” (Navinta III Inc, priority 2018, published 2019).
Entries after “also recorded” stand apart in the source; their conditions may differ. Where a name gives a salt, the structure may show the parent alone.

Assays:
[1] = system: subjects receiving highly emetogenic cisplatin-based chemotherapy; conditions: added to ondansetron and dexamethasone
[2] = precipitates when the pH is above the range
[3] = 1% w/v in water

In the case of C[C@@H](O[C@H]1OCCN(Cc2n[nH]c(=O)[nH]2)[C@H]1c1ccc(F)cc1)c1cc(C(F)(F)F)cc(C(F)(F)F)c1 [Aprepitant], the “protection against CINV” value [1] is listed as “consistently superior protection” and the “solubility in water (in words)” value (water) is listed as “very low solubility; also recorded: minimal solubility; also recorded: practically insoluble”.
In the case of Cc1nccn1CC1CCc2c(c3ccccc3n2C)C1=O (stereo not drawn) [Ondansetron], the “pH above which free base precipitates” value [2] is given as 5.7-7, the “pH of a 1% w/v solution in water” value [3] is given as “about 4.6” and the solubility in saline (saline) is given as 0.8%. For the same compound, the solubility in water (water) was 3.2%.
In the case of O=C1c2cccc3c2[C@H](CCC3)CN1[C@@H]1CN2CCC1CC2 [Palonosetron Hydrochloride], the “solubility in aqueous media” value (across the physiological pH range) is given as “very soluble” and the “solubility in water (in words)” value (water) is given as “freely soluble”.
In the case of C[C@@H](O[C@H]1OCCN(Cc2nc(O)n(P(=O)(O)O)n2)[C@H]1c1ccc(F)cc1)c1cc(C(F)(F)F)cc(C(F)(F)F)c1 [Fosaprepitant], the “solubility in water (in words)” value (water) is listed as “good solubility”.
